# Source: article PMC6611809, “Actin stabilizing compounds show specific biological effects due to their binding mode” (Scientific Reports, 2019)
# Biological target: T1, actin (F-actin) (Oryctolagus cuniculus, UniProt P68135)
# T1 construct: gene ACTA1; Atto488-labeled F-actin from rabbit skeletal muscle
# Test: TIRF displacement of rhodamine-phalloidin from purified actin filaments; supported by pyrene, TIRF and FCS polymerization assays
# Format: binding
# Text: TIRF displacement of rhodamine-phalloidin from purified actin filaments; supported by pyrene, TIRF and FCS polymerization assays on actin (F-actin) | Rhodamine-labeled phalloidin could be displaced from actin filaments by MiuA in a concentration dependent manner
structure (smiles),measurement,value
"CO/C(=C1/NC(=O)C(Cc2ccc(O)c(Br)c2)N(C)C(=O)C(C)NC(=O)CCC/C=C(\C)CCC(C)OC1=O)c1ccccc1 (stereo not shown) [MiuA, Miuraenamide A]",IC50,~5 nM
